Assay results from patent US8383637B2, “2-amino-quinazoline derivatives useful as inhibitors of β-secretase (BACE)” (Jansssen Pharmaceutica N.V., priority 2004, dated 2013).
Like-named read-outs stand apart in the source and are kept apart here.

Columns and labels:
β-secretase(BACE) [1] = molecular target: T1, β-secretase(BACE) (Homo sapiens, UniProt P56817); assay: BACE FS1% Inhibition Assay; assay type: biochemical; conditions: FS1 substrate; for inhibition at 10 µM: 10 μM test compound, read-out: % Inhibition (FS) 10 μM
T1 construct: purchased Panvera
Procedure, shortened: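 Percent inhibition at each tested concentration, referenced to enzyme-free blank and vehicle-only positive control. Reaction: compound and BACE (4 μg/mL working stock) mixed 20 min at room temperature before FS1 substrate (300 μg/mL working stock), then 1 h at room temperature.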

β-secretase(BACE) [2] = molecular target: T1, β-secretase(BACE); assay: BACE Assay-2 (FS1 substrate, IC50 and Ki); assay type: biochemical; conditions: procedure of Example 159, FS1 substrate; read-out: Ki μM (159)
[3] = 0.3 μM test compound, read-out: % Inhibition (FS)
[4] = 1 μM test compound, read-out: % Inhibition (FS)
[5] = 3 μM test compound, read-out: % Inhibition (FS)
[6] = 0.3 μM test compound, read-out: % Inhibition (FS) 0.3 μM
[7] = 1 μM test compound, read-out: % Inhibition (FS) 1 μM
[8] = 3 μM test compound, read-out: % Inhibition (FS) 3 μM

T1 sequence (P56817 46-501): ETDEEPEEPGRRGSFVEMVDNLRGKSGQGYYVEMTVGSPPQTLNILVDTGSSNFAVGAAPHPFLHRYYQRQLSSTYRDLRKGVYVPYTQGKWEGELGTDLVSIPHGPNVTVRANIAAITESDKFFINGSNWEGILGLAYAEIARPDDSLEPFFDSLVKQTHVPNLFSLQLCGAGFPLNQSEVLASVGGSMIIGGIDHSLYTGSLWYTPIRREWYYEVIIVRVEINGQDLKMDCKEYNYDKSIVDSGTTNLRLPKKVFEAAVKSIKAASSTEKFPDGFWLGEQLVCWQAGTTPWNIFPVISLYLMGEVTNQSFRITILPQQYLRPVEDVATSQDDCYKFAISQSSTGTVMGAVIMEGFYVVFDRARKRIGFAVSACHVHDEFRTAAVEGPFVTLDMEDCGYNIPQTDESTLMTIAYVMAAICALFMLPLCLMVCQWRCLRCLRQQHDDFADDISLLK

SMILES	inhibition at 0.3 µM (β-secretase(BACE) [1]; [3])	inhibition at 1 µM (β-secretase(BACE) [1]; [4])	inhibition at 3 µM (β-secretase(BACE) [1]; [5])	Ki (β-secretase(BACE) [2])	inhibition at 0.3 µM (β-secretase(BACE) [1]; [6])	inhibition at 1 µM (β-secretase(BACE) [1]; [7])	inhibition at 3 µM (β-secretase(BACE) [1]; [8])	other results
NC1=Nc2ccc(Oc3ccccc3)cc2CN1[C@@H](CCC(=O)N(CCO)C1CCCCC1)C1CCCCC1 [Compound 736, (S)-enantiomer of 4-(2-Amino-6-phenoxy-4H-quinazolin-3-yl)-4,N-dicyclohexyl-N-(2-hydroxy-ethyl)-butyramide]	125%	134%	135%	0.013 µM				
CN(CCc1ccccc1)C(=O)CC[C@@H](C1CCCCC1)N1Cc2cc(-c3ccccc3F)ccc2N=C1N [Compound 727]				0.43 µM				% Inhibition (FS) (β-secretase(BACE) [1]; 0.3 μM test compound): 46%; % Inhibition (FS) (β-secretase(BACE) [1]; 1 μM test compound): 80%; % Inhibition (FS) (β-secretase(BACE) [1]; 3 μM test compound): 137%
CC1CCCCC1NC(=O)CCN1Cc2cc(Oc3ccccc3)ccc2N=C1N (stereo not drawn) [Compound 511]				0.1 µM	34%	85%	113%	
CN(C(=O)CCC(C1CCCCC1)N1Cc2cc(Oc3ccccc3)ccc2N=C1N)C1CCC(O)CC1 (stereo not drawn) [Compound 712]	39%	104%	134%	0.1 µM				
CN(C(=O)CC[C@@H](C1CCCCC1)N1Cc2cc(Oc3ccccc3)ccc2N=C1N)[C@H]1CC[C@H](C(=O)O)CC1 [Compound 740]	82%	98%	104%	0.037 µM				
CCCC(CNC(=O)C1CCCCC1)N1Cc2cc(Oc3ccccc3)ccc2N=C1N (stereo not drawn) [Compound 601]				0.027 µM				% Inhibition (FS) 0.3 μM (β-secretase(BACE) [1]; 0.3 μM test compound, 0.3 µM): 105%; % Inhibition (FS) 1 μM (β-secretase(BACE) [1]; 1 μM test compound, 1 µM): 115%; % Inhibition (FS) 3 μM (β-secretase(BACE) [1]; 3 μM test compound, 3 µM): 121%
NC1=Nc2ccc(Oc3ccccc3)cc2CN1[C@@H](CCC(=O)N(CCO)[C@H]1CC[C@@H](C(=O)O)CC1)C1CCCCC1 [Compound 749, (S)-Enantiomer of 4-cis-[[4-(2-Amino-6-phenoxy-4H-quinazolin-3-yl)-4-cyclohexyl-butyryl]-(2-hydroxy-ethyl)-amino]-cyclohexanecarboxylic acid]	113%	112%	115%	0.017 µM				
COC(=O)[C@H](COCc1ccccc1)NC(=O)CC[C@@H](C1CCOCC1)N1Cc2cc(Oc3ccccc3)ccc2N=C1N [Compound 785]	71%	91%	107%	0.198 µM				
NC1=Nc2ccc(Oc3ccccc3)cc2CN1[C@@H](CCC(=O)N[C@@H](COCc1ccccc1)C(=O)O)C1CCOCC1 [Compound 782]	104%	107%	113%	0.015 µM				
CN(C(=O)CCCN1Cc2cc(Oc3ccccc3)ccc2N=C1N)C1CCCCC1 [Compound 177]				0.56 µM	< 30%	80%	102%	
CN(C(=O)c1cccc(CN2Cc3cc(Nc4ccccc4)ccc3N=C2N)c1)C1CCCCC1 [Compound 432]				0.86 µM	< 30%	41%	84%	
CN(CCC#N)C(=O)CC[C@@H](C1CCCCC1)N1Cc2cc(-c3ccccc3F)ccc2N=C1N [Compound 725]	33%	74%	126%	0.45 µM				
CN(C(=O)CCN1Cc2cc(Oc3ccccc3)ccc2N=C1N)C1C2CC3CC(C2)CC1C3 (stereo not drawn) [Compound 618]				0.19 µM	< 30%	70%	104%	
COC1CCCC(C(=O)NCCN2Cc3cc(-c4ccccc4Cl)ccc3N=C2N)C1 (stereo not drawn) [Compound 692]	46%	90%	116%	0.13 µM				
CC(C)CC(=O)NC[C@@H](C(C)C)N1Cc2cc(Oc3ccccc3)ccc2N=C1N [Compound 563]				0.02 µM	101%	119%	127%	
COc1ccccc1-c1ccc2c(c1)CN(C(CCC(=O)N(C)C1CCCCC1)C1CCCCC1)C(N)=N2 (single isomer, unassigned) [Compound 530]				0.13 µM	< 30%	80%	118%	
CN(C(=O)CCC(c1ccccc1)N1Cc2cc(Oc3ccccc3)ccc2N=C1N)C1CCCCC1 (stereo not drawn) [Compound 151]				0.23 µM			79%	inhibition at 10 µM (β-secretase(BACE) [1]): 104%
Cc1ccccc1-c1ccc2c(c1)CN(CCNC(=O)C1CCCCC1)C(N)=N2 [Compound 537]				0.041 µM	83%	106%	125%	
NC1=Nc2ccc(Oc3ccccc3)cc2CN1CCNC(=O)CCC1CCCC1 [Compound 140]				0.32 µM			79%	inhibition at 10 µM (β-secretase(BACE) [1]): 101%
COc1ccccc1-c1ccc2c(c1)CN([C@@H](CCC(=O)N(C)CCc1ccccc1)C1CCCCC1)C(N)=N2 [Compound 721, 4-[2-Amino-6-(2-methoxy-phenyl)-4H-quinazolin-3-yl]-4-(S)-cyclohexyl-N-methyl-N-phenethyl-butyramide]	60%	66%	127%	0.22 µM				
CN(C(=O)CC[C@@H](C1CCOCC1)N1Cc2cc(Oc3ccccc3)ccc2N=C1N)C1CCCCC1 [Compound 709, (S)-enantiomer of 4-(2-Amino-6-phenoxy-4H-quinazolin-3-yl)-N-cyclohexyl-N-methyl-4-(tetrahydro-pyran-4-yl)-butyramide]	141%	143%	139%	0.0065 µM				
CN(C(=O)c1cccc(C(c2ccccc2)N2Cc3cc(Oc4ccccc4)ccc3N=C2N)c1)C1CCCCC1 (stereo not drawn) [Compound 136]				0.5 µM			85%	inhibition at 10 µM (β-secretase(BACE) [1]): 133%
CCCCCC(CCC(=O)NC1CCCCC1)N1Cc2cc(Oc3ccccc3)ccc2N=C1N (stereo not drawn) [Compound 149]				0.21 µM	32%	71%	111%	
COC(=O)[C@H]1CC[C@@H](N(C)C(=O)CC[C@@H](C2CCOCC2)N2Cc3cc(Oc4ccccc4)ccc3N=C2N)CC1 [Compound 744]	91%	108%	112%	0.031 µM				
